# Source: US9783537B2, “3-(4-ethylnylphenyl) pyridopyrimidinone compounds and process for preparation thereof useful as potential anticancer agents” (Council of Scientific & Industrial Research, priority 2013, dated 2017)
# Where two headings read alike, the source gives them in different places.
# Key:
# DU-145 = assay: SRB 48 h growth assay, Prostate DU-145; assay type: cell-based, human; settings: DU-145, Prostate
# SN12C = assay: SRB 48 h growth assay, Renal SN12C; assay type: cell-based, human
# SW-620 = assay: SRB 48 h growth assay, Colon SW-620; assay type: cell-based, human; settings: Homo sapiens, SW-620, Colon
# SK-MEL-2 = assay: SRB 48 h growth assay, Melanoma SK-MEL-2; assay type: cell-based, human; settings: SK-MEL-2, Melanoma
# RXF393 = assay: SRB 48 h growth assay, Renal RXF393; assay type: cell-based, human
# SK-MEL-28 = assay: SRB 48 h growth assay, Melanoma SK-MEL-28; assay type: cell-based, human; settings: SK-MEL-28, Melanoma
# ACHN = assay: SRB 48 h growth assay, Renal ACHN; assay type: cell-based, human
# MDA-MB-468 = assay: SRB 48 h growth assay, Breast MDA-MB-468; assay type: cell-based, human; settings: MDA-MB-468, Breast
# [1] = tested on: two prostate cancer cell line (PC-3, DU-145); assay: in vitro anticancer activity, prostate panel; assay type: cell-based; settings: Homo sapiens; two prostate cancer cell lines, exposure at least 48 h; read-out: GI50, range over panel
# NCI-H23 = assay: SRB 48 h growth assay, Non-small Cell Lung NCI-H23; assay type: cell-based, human
# HS578T = assay: SRB 48 h growth assay, Breast HS578T; assay type: cell-based, human
# SF-268 = assay: SRB 48 h growth assay, CNS SF-268; assay type: cell-based, human; settings: SF-268, CNS
# LOX IMVI = assay: SRB 48 h growth assay, Melanoma LOX IMVI; assay type: cell-based, human
# T-47D = assay: SRB 48 h growth assay, Breast T-47D; assay type: cell-based, human
# OVCAR-5 = assay: SRB 48 h growth assay, Ovarian OVCAR-5; assay type: cell-based, human; settings: OVCAR-5, Ovarian
# NCI-H322M = assay: SRB 48 h growth assay, Non-small Cell Lung NCI-H322M; assay type: cell-based, human
# [2] = in vitro anticancer activity, non-small cell lung panel; assay type: cell-based; settings: Homo sapiens; nine non-small cell lung cancer cell lines, exposure at least 48 h; read-out: GI50, range over panel
# [3] = tested on: six breast cancer cell line (MCF-7, MDA-MB-231/ATCC, HS 578T, TD-47D, MDA-MB-468 and BT-549); assay: in vitro anticancer activity, breast panel; assay type: cell-based; settings: Homo sapiens; six breast cancer cell lines, exposure at least 48 h; read-out: GI50, range over panel
# MDA-MB-435 = assay: SRB 48 h growth assay, Melanoma MDA-MB-435; assay type: cell-based, human; settings: MDA-MB-435, Melanoma
# HOP-62 = assay: SRB 48 h growth assay, Non-small Cell Lung HOP-62; assay type: cell-based, human; settings: HOP-62, Non-small Cell Lung
# HL-60(TB) = assay: SRB 48 h growth assay, Leukemia HL-60(TB); assay type: cell-based, human
# [4] = tested on: six leukemia cancer cell lines (CCRF-CEM, HL-60, K-562, MOLT-4, SR and RPMI-8226); assay: in vitro anticancer activity, leukemia panel; assay type: cell-based; settings: Homo sapiens, exposure at least 48 h, read-out: GI50, range over panel
# BT-549 = assay: SRB 48 h growth assay, Breast BT-549; assay type: cell-based, human; settings: BT-549, Breast
# SNB-19 = assay: SRB 48 h growth assay, CNS SNB-19; assay type: cell-based, human; settings: SNB-19, CNS
# MCF7 = assay: SRB 48 h growth assay, Breast MCF7; assay type: cell-based, human
# KM12 = assay: SRB 48 h growth assay, Colon KM12; assay type: cell-based, human
# HCC-2998 = assay: SRB 48 h growth assay, Colon HCC-2998; assay type: cell-based, human; settings: HCC-2998, Colon
# [5] = Homo sapiens, read-out: Growth Inhibition GI50
# [6] = Homo sapiens, read-out: Log10 GI50 (converted)
# [7] = Homo sapiens, read-out: Log10 LC50 (converted)
structure (smiles),measurement,setting,value
"C#Cc1ccc(-n2c(/C=C/c3ccc4ccccc4c3)nc3ncccc3c2=O)cc1 [4s, (E)-3-(4-Ethynylphenyl)-2-(2-(naphthalen-2-yl)vinyl)pyrido[2,3-d]pyrimidin-4(3H)-one]",Log10 TGI50,DU-145,>−4.00
same,GI50,DU-145; [5],7.45 µM
same,GI50,DU-145; [6],7.41 µM
same,CC50,DU-145; [7],> 100 µM
same,Log10 TGI50,SN12C,>−4.00
same,GI50,SN12C; [5],3.29 µM
same,GI50,SN12C; [6],3.31 µM
same,CC50,SN12C; [7],> 100 µM
same,GI50,SW-620; read-out: Growth Inhibition GI50,2220 nM
same,GI50,SW-620; read-out: Log10 GI50 (converted),2240 nM
same,GI50,SK-MEL-2; [5],2410 nM
same,GI50,SK-MEL-2; [6],2400 nM
same,CC50,SK-MEL-2; [7],6.17 µM
same,Log10 TGI50,SK-MEL-2,−5.21
same,Log10 TGI50,RXF393,−5.26
same,GI50,"RXF393; Homo sapiens, RXF 393, read-out: Growth Inhibition GI50",1790 nM
same,GI50,"RXF393; Homo sapiens, RXF 393, read-out: Log10 GI50 (converted)",1780 nM
same,CC50,"RXF393; Homo sapiens, RXF 393, read-out: Log10 LC50 (converted)",5.5 µM
same,GI50,SK-MEL-28; [5],4.33 µM
same,GI50,SK-MEL-28; [6],4.37 µM
same,CC50,SK-MEL-28; [7],> 100 µM
same,Log10 TGI50,SK-MEL-28,>−4.00
same,Log10 TGI50,ACHN,>−4.00
same,GI50,ACHN; [5],2570 nM
same,GI50,ACHN; [6],2570 nM
same,CC50,ACHN; [7],> 100 µM
same,GI50,MDA-MB-468; [5],960 nM
same,GI50,MDA-MB-468; [6],955 nM
same,CC50,MDA-MB-468; [7],7.76 µM
same,Log10 TGI50,MDA-MB-468,−5.11
same,GI50,[1],280 to 340 nM
same,Log10 TGI50,NCI-H23,>−4.00
same,GI50,NCI-H23; [5],6.39 µM
same,GI50,NCI-H23; [6],6.46 µM
same,LC50,NCI-H23; [7],> 100 µM
same,Log10 TGI50,HS578T,>−4.00
same,GI50,"HS578T; Homo sapiens, Hs-578T, read-out: Growth Inhibition GI50",7.62 µM
same,GI50,"HS578T; Homo sapiens, Hs-578T, read-out: Log10 GI50 (converted)",7.59 µM
same,CC50,"HS578T; Homo sapiens, Hs-578T, read-out: Log10 LC50 (converted)",> 100 µM
same,GI50,SF-268; [5],2600 nM
same,GI50,SF-268; [6],2630 nM
same,CC50,SF-268; [7],> 100 µM
same,Log10 TGI50,SF-268,>−4.00
same,Log10 TGI50,LOX IMVI,−5.51
same,GI50,LOX IMVI; [5],510 nM
same,GI50,LOX IMVI; [6],513 nM
same,CC50,LOX IMVI; [7],3.09 µM
same,Log10 TGI50,T-47D,>−4.00
same,GI50,"T-47D; Homo sapiens, T47D, read-out: Growth Inhibition GI50",3.9 µM
same,GI50,"T-47D; Homo sapiens, T47D, read-out: Log10 GI50 (converted)",3.89 µM
same,CC50,"T-47D; Homo sapiens, T47D, read-out: Log10 LC50 (converted)",> 100 µM
same,GI50,OVCAR-5; [5],6.88 µM
same,GI50,OVCAR-5; [6],6.92 µM
same,CC50,OVCAR-5; [7],> 100 µM
same,Log10 TGI50,OVCAR-5,>−4.00
same,Log10 TGI50,NCI-H322M,>−4.00
same,GI50,NCI-H322M; [5],7.3 µM
same,GI50,NCI-H322M; [6],7.24 µM
same,CC50,NCI-H322M; [7],> 100 µM
same,GI50,[2],180 to 700 nM
same,GI50,[3],230 to 350 nM
same,GI50,MDA-MB-435; [5],2060 nM
same,GI50,MDA-MB-435; [6],2040 nM
same,CC50,MDA-MB-435; [7],> 100 µM
same,Log10 TGI50,MDA-MB-435,>−4.00
same,Log10 TGI50,HOP-62,>−4.00
same,GI50,HOP-62; [5],7.45 µM
same,GI50,HOP-62; [6],7.41 µM
same,CC50,HOP-62; [7],> 100 µM
same,Log10 TGI50,HL-60(TB),−5.05
same,GI50,HL-60(TB); [5],1660 nM
same,GI50,HL-60(TB); [6],1660 nM
same,CC50,HL-60(TB); [7],8.91 µM
same,GI50,[4],260 to 450 nM
same,Log10 TGI50,BT-549,−5.26
same,GI50,BT-549; [5],1980 nM
same,GI50,BT-549; [6],2000 nM
same,CC50,BT-549; [7],5.5 µM
same,GI50,SNB-19; [5],2950 nM
same,CC50,SNB-19; [7],> 100 µM
same,Log10 TGI50,SNB-19,>−4.00
same,Log10 TGI50,MCF7,>−4.00
same,GI50,MCF7; [5],2430 nM
same,GI50,MCF7; [6],2450 nM
same,CC50,MCF7; [7],> 100 µM
same,Log10 TGI50,KM12,>−4.00
same,GI50,KM12; [5],2950 nM
same,GI50,KM12; [6],2950 nM
same,CC50,KM12; [7],> 100 µM
same,Log10 TGI50,HCC-2998,−5.30
same,GI50,HCC-2998; [5],2320 nM
same,GI50,HCC-2998; [6],2290 nM
same,CC50,HCC-2998; [7],5.01 µM
